{"source": "patent US20240418735A1", "about": "“Methods and Kits for Determining Insulin Resistance Treatment” (Scimar Ltd., priority 2021, published 2024)", "key": {"[1]": {"tested_on": "MIS (Meal-induced Insulin Sensitization)", "experiment": "RIST index / % MIS before and 90 minutes after a mixed liquid meal in sucrose-supplemented rats", "format": "in vivo", "conditions": "for restoration of MIS on increasing the dose: increased doses of either NAC or BE, sucrose-supplemented rats", "description": "While the present invention is not limited to a particular model or mechanism of action, it appears the response to feeding results in the release of acetylcholine which activates muscarinic receptors in the liver. This activation leads to increased production of nitric oxide which stimulates guanyl cyclase activity, resulting in increased levels of cyclic guanosine monophosphate which acts in stimulating the release of hepatalin from the liver. Meal-induced insulin […] (MIS) results from insulin-induced secretion of hepatalin which can only occur if the liver receives two permissive feeding signals. Absence of either signal blocks the ability of insulin to trigger hepatalin secretion. The combination of bethanechol and N-acetylcystelne (BENAC) mimics the 2 signals.\nFIG. 1 is a chart showing BENAC synergistic treatment of AMIS. The % MIS (hepatalin/insulin action×100%) calculated from the RIST index in 24 hour fasted anaesthetized rats determined before and 90 minutes after intragastric injection of a mixed liquid meal in a normal control group and in four groups that had been treated with nine weeks of sucrose supplementation."}, "GSH": {"tested_on": "GSH", "experiment": "GSH levels in sucrose-supplemented rats", "format": "in vivo", "conditions": "nine weeks of sucrose supplementation"}, "hepatalin secretion": {"tested_on": "hepatalin secretion", "conditions": "one dose given before a test meal; rats on sucrose supplemented diet, 9 weeks; cited from earlier work"}}}
{"smiles": "CC(=O)N[C@@H](CS)C(=O)O", "note": "[N-acetyl cysteine]", "values": [{"measurement": "effect on the RIST index", "setting": "[1]; 24 hour fasted anaesthetized rats, nine weeks of sucrose supplementation", "result": "no effect"}, {"measurement": "restoration of MIS on increasing the dose", "setting": "[1]", "result": "restored MIS to levels seen after feeding but not above"}, {"measurement": "GSH levels", "setting": "GSH", "result": "elevated GSH levels to that seen after feeding"}, {"measurement": "ability of insulin to stimulate hepatalin secretion", "setting": "hepatalin secretion", "result": "ineffective"}]}
{"smiles": "CC(C[N+](C)(C)C)OC(N)=O", "note": "(stereo not shown) [Bethanechol]", "values": [{"measurement": "restoration of MIS (% MIS calculated from the RIST index)", "setting": "[1]; 24 hour fasted anaesthetized rats, nine weeks of sucrose supplementation, before and 90 minutes after intragastric mixed liquid meal", "result": "modest restoration of MIS"}, {"measurement": "restoration of MIS on increasing the dose", "setting": "[1]", "result": "restored MIS to levels seen after feeding but not above"}, {"measurement": "ability of insulin to stimulate hepatalin secretion", "setting": "hepatalin secretion", "result": "ineffective"}]}
